This note sets out measurements from ChEMBL document CHEMBL3588773, “Volume of Distribution in Drug Design” (J Med Chem, 2015).

Data set [1] can be described thus: Volume of distribution at steady state in Sprague-Dawley rat at 2.5 mg/kg. The class given is ADME, organism-based. Conditions: in vivo, read-out: Vdss.
A further data set deals with Heat shock protein HSP90 (Homo sapiens, UniProt P07900+P08238). The experiment in a line: Inhibition of human recombinant HSP90 by scintillation proximity competition binding assay. The data set is classed as protein assay. Background: In a scintillation proximity assay essentially only radioactivity close to the scintillant gives light.
Data set [2] is described as follows: Lipophilicity, log P of the compound. Conditions: octanol/water.
Data set [3] in a line: Distribution coefficient, log D of the compound. The note with it: octanol/water. The class given is physicochemical.
For data set [4], the species on record is Homo sapiens. The data set is described as follows: Unbound volume of distribution at steady state in human. The data set is classed as ADME, organism-based. Conditions: in vivo.
The species entered for data set [5] is Homo sapiens. The data set is described as follows: Unbound intrinsic clearance in human. The data set is classed as ADME, organism-based. The note with it: in vivo.
The next data set deals with Plasma. The experiment in a line: (§1) Unbound fraction in human plasma. The data set is classed as ADME, cell-free.
The nature of data set [6]: Volume of distribution at steady state in human. The note with it: in vivo.
Data set [7] in a line: Dissociation constant of the compound. The data set is classed as physicochemical.
Data set [8] can be described thus: as §1. The class given is ADME, cell-free.
The nature of data set [9]: Volume of distribution at steady state in mouse. The class given is ADME, organism-based. Conditions: in vivo, read-out: Vdss.
A short description of data set [10]: Volume of distribution at steady state in wild type mouse. The note with it: in vivo, read-out: Vdss. The class given is ADME, organism-based.

For orientation: Ki means a dissociation constant, usually derived from enzyme kinetics or from competition with a known ligand. Regarding `CC(C)(CC(F)(F)F)NC(=O)N1Cc2nc(N)nc(-c3c(Cl)cc(Cl)cc3OCCn3cccn3)c2C1`, the Vd in data set [1] came to 2 L/kg. For the same compound, the inhibition constant (Ki) at Heat shock protein HSP90 was 9.7 nM.
Regarding `CC(C)(CC(F)(F)F)NC(=O)N1Cc2nc(N)nc(-c3c(Cl)cc(Cl)cc3OCCn3cc(F)cn3)c2C1`, in data set [1], the Vd is 13 L/kg. Moreover, the Ki on Heat shock protein HSP90 was found to be 2.1 nM.
On the same counts, the results for `CC(F)(F)CC(C)(C)NC(=O)N1Cc2nc(N)nc(-c3c(Cl)cc(Cl)cc3OCCn3cccn3)c2C1` are 1.8 L/kg and 6.6 nM.
As to `CC(F)(F)CC(C)(C)NC(=O)N1Cc2nc(N)nc(-c3c(Cl)cc(Cl)cc3OCCn3cc(F)cn3)c2C1`, the Vd in data set [1] was 10 L/kg. Also, on Heat shock protein HSP90, the Ki was found to be 1.7 nM.
In the case of `CC(C)(NC(=O)N1Cc2nc(N)nc(-c3c(Cl)cc(Cl)cc3OCCn3cccn3)c2C1)C12CC(C1)C2`, the Vd in data set [1] was 1.8 L/kg. The Ki at Heat shock protein HSP90 is listed as 7.3 nM.
On the same counts, the results for `CC(C)(NC(=O)N1Cc2nc(N)nc(-c3c(Cl)cc(Cl)cc3OCCn3cc(F)cn3)c2C1)C12CC(C1)C2` are 11 L/kg and 3.3 nM.
In general, logP refers to a log measure of how a compound divides between an organic and an aqueous phase. A lower logP goes with lower lipophilicity. For orientation: logD means the decadic logarithm of the distribution of all forms, ionised or not, between an organic phase and buffer at a given pH. In turn, `CCOC(=O)C1=C(COCCN)NC(C)=C(C(=O)OC)C1c1ccccc1Cl` (stereo not given) [AMLODIPINE] came in with a logP in [2] of 3.3. Also, in data set [3] (read-out: logD), the pH-dependent lipophilicity (logD) was determined as 1.2.
`CC(C)NCC(O)COc1ccc(CCOCC2CC2)cc1` (stereo not given) [BETAXOLOL]: the pH-dependent lipophilicity (logD) in [3] was 1.1. The Vduss in the data set filed under Homo sapiens [4] came to 13 L/kg. In the data set listed under Homo sapiens [5], this compound yielded a CL free of 13 mL/min/kg.
Compound `CN(C)CCC(c1ccc(Cl)cc1)c1ccccn1` (stereo not given) [CHLORPHENIRAMINE] registered a lipophilicity (logP) in data set [2] of 3.4. Further, in data set [3] (read-out: logD), the log distribution coefficient (logD) turned out to be 1.5. Besides, the Fu in the data set with Plasma is reported as 0.056. The Vd in data set [6] stood at 10 L/kg. In the data set listed under Homo sapiens [4], this compound came in with a Vduss of 178 L/kg.
For the compound `OC(Cn1cncn1)(Cn1cncn1)c1ccc(F)cc1F` [FLUCONAZOLE], the Vduss in the data set filed under Homo sapiens [4] was found to be 0.84 L/kg.
In general, pKa refers to the pH at which an ionisable group is half protonated. Higher therefore signals a group that holds its proton tightly. Broadly, the fraction unbound is free concentration divided by total concentration. The low end stands for little free substance, the high end for much free substance. For the compound `CNCCC(Oc1ccc(C(F)(F)F)cc1)c1ccccc1` (stereo not given) [FLUOXETINE], the pKa in data set [7] came out at 10.5. The compound also had a fraction unbound in [8] of 0.06. For the same compound, the Vd in [6] came to 4.3 L/kg. The Vduss in the data set listed under Homo sapiens [4] stood at 71 L/kg.
For the compound `O=C(CCCN1CCC(O)(c2ccc(Cl)cc2)CC1)c1ccc(F)cc1` [HALOPERIDOL], the Vd in data set [9] was found to be 0.6 L/kg.
`COc1ccc2c(c1)c(CC(=O)O)c(C)n2C(=O)c1ccc(Cl)cc1` [INDOMETHACIN]: in [3] (read-out: logD), the pH-dependent lipophilicity (logD) came to 0.7. In the data set with Plasma, this compound had a Fu of 0.01. Moreover, the Vduss in the data set filed under Homo sapiens [4] amounted to 9.6 L/kg.
Consider `CC(C(=O)O)c1cccc(C(=O)c2ccccc2)c1` (stereo not given) [KETOPROFEN], for which the logP in data set [2] is 2.9. In [3] (read-out: logD), the pH-dependent lipophilicity (logD) came out at 0.2.
In the case of `COCCc1ccc(OCC(O)CNC(C)C)cc1` (stereo not given) [METOPROLOL], the pH-dependent lipophilicity (logD) in data set [3] (read-out: logD) was -0.1. Besides, the Vduss in the data set filed under Homo sapiens [4] amounted to 4 L/kg. In addition, the CL free in the data set listed under Homo sapiens [5] came to 33 mL/min/kg.
As to `COCCOC(=O)C1=C(C)NC(C)=C(C(=O)OC(C)C)C1c1cccc([N+](=O)[O-])c1` (stereo not given) [NIMODIPINE], the logP in data set [2] was 4.2.
`CC[C@H](C)C(=O)O[C@H]1C[C@H](O)C=C2C=C[C@H](C)[C@H](CC[C@@H](O)C[C@@H](O)CC(=O)O)[C@H]21` [PRAVASTATIN]: the Vd in data set [10] turned out to be 0.27 L/kg.
Still for that read-out and setting: in the case of `CCC(C)(C)C(=O)O[C@H]1C[C@@H](C)C=C2C=C[C@H](C)[C@H](CC[C@@H]3C[C@@H](O)CC(=O)O3)[C@H]21` [SIMVASTATIN] it was 14 L/kg.
For `O=c1n(CCCN2CCN(c3cccc(Cl)c3)CC2)nc2ccccn12` [TRAZODONE], the Vd in data set [9] came to 18 L/kg.
